Experiment [1] relates to Lewis strain laboratory rats. Briefly: In vivo alleviation of inflammation: Mycobacterium butyricum-induced polyarthritis, inhibition of paw volume increase. The arrangement: species or system rat (Lewis strain). Conditions: Rattus norvegicus, po, five consecutive days from day 10, paw volume about 4 h after final dose, read-out: % Inhibition Oral Dosage (percentage inhibition of pad swelling); for inhibition in vivo at 50 mg/kg: 50 mg/kg p.o. As for the experimental part:
Polyarthritis was induced in Lewis strain laboratory rats (weight=about 200 grams) by injection of a suspension of Mycobacterium butyricum in mineral oil into the subplantar tissue of the mammals' hind paws. On day 10 after the injection, the rats were assigned to groups, and paw volumes and body weights were recorded. Paw volumes of the contralateral, uninjected hind paw were determined by mercury plethylsmography. Per os (p.o.) dosing began and continued for five consecutive days thereafter. On day 14 after the initial injection, approximately four hours after the final dose was administered, paw volumes and body weights were recorded and quantitated.
Anti-inflammatory activity of the substituted naphthalene compounds is expressed as the present inhibition of paw volume increase.

The target of the next experiment is T1, 5-lipoxygenase (Rattus norvegicus, UniProt P12527).
T1 construct: 5-HETE Production in Whole Cells; endogenous in cells; host or cells: RBL-1 (rat basophilic leukemia cells)
T1 sequence (P12527 1-673): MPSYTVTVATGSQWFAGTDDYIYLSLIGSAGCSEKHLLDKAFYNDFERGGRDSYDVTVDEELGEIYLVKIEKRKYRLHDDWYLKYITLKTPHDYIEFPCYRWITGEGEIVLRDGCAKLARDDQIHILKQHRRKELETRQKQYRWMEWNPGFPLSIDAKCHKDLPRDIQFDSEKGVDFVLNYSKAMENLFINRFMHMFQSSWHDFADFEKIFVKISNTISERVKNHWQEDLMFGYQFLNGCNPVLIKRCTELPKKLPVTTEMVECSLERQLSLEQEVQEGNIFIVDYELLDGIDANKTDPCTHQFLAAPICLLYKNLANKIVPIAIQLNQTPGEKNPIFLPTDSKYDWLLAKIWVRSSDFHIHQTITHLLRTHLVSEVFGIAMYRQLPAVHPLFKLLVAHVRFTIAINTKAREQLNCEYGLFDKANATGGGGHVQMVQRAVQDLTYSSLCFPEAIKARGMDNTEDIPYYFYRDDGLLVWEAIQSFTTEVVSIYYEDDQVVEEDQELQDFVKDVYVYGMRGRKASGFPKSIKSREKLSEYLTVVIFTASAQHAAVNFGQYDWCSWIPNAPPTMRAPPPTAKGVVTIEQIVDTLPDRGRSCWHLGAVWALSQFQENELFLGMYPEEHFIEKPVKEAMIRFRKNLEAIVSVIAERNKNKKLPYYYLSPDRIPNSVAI
The experiment is described as follows: Inhibition of 5-lipoxygenase (5-HETE production) in whole RBL-1 cells. Type of experiment: cell-based. The settings on record: in vitro, RBL-1 whole cells, A23187 1.9 μM, 55 μM 14C-arachidonic acid, 37° C; highest concentration tested 10 μM; read-out: IC50 (lipoxygenase inhibitory activity). As for the experimental part: Rat basophilic leukemia cells (RBL-1) were grown in Eagle's Minimal Essential Medium containing 10% fetal calf serum. 5% calf serum, 1% glutamine and 50 mg/l gentamycin were maintained at 37° C. in an atmosphere containing 5% CO2. Exponentially growing cells were harvested by centrifugation at 400×g for 10 minutes at 4° C. and were washed once with Dulbecco's phosphate buffered saline containing 0.87 mM CaCl2. The cells were resuspended in the same buffer at a concentration of 1.85×10^7 cells/ml.
RBL-1 cells (1.57×10^7 cells/tube) were preincubated for 10 minutes at 37° C. in the presence of the indicated drugs or vehicle (1% DMSO). Following the transfer of the assay tubes to an icebath, the reaction was initiated by the sequential addition of calcium ionophore A23187, an agent which increases the ability of divalent ions such as Ca^++ to cross biological membranes (final concentration=1.9 μM) and 55 μM 1-^14 C-arachidonic acid (New England Nuclear) at a final specific activity of 3000-4000 cpm/nmole. The final volume in each tube was 1 ml. The assay tubes were incubated at 37° C. for 5 minutes, and the reaction was stopped by transferring the tubes to ice and adjusting the pH of the reaction mixture to pH 3.0-3.5 by the addition of 1M citric acid.
In order to isolate the Δ5 -lipoxygenase product, ^14 C-5-HETE that was formed from arachidonic acid, each assay tube was extracted once with 6 volumes of anhydrous diethyl ether. In most assays, the recovery of product was estimated by determining the total amount of radioactivity recovered after extraction. In the remaining assays the recovery of ^14 C-5-HETE was monitored by addition of trace quantities of ^3 H-5-HETE (New England Nuclear) prior to extraction. The ether fractions from each sample were dried under nitrogen, redissolved and spotted on Gleman silica gel-impregnated glass fiber sheets. The plates were developed in iso-octane:2-butanone:glacial acetic acid (100:9:1). The area of each plate corresponding to added 5-HETE standard was visualized in an iodine chamber. The amount of ^14 C-5-HETE presented was quantitated by liquid scintillation counting in Aquasol II (New England Nuclear) and corrected for recovery. The percent inhibition of lipoxygenase activity represents the decrease in the amount of product formed from arachidonic acid by the cells or cell supernatant in the presence of drug. The values for negative controls (assays incubated on ice in the presence of citric acid) were always less than 10% of the positive controls and were subtracted from each tube. The IC50 is the concentration of drug which is required for 50% inhibition of the enzyme, as determined graphically from assays using multiple concentrations of drug.

Inhibition in vivo and IC50 data for 17 compounds are collected here from US4681894A, “Hydroxamic acids and esters” (Ortho Pharmaceutical Corporation, priority 1986, dated 1987).

Some results are limits rather than exact numbers.

`CCOC(=O)CCCCCCC(=O)c1ccc2cc(OC)ccc2c1` [Example 1, Ethyl 8-(6-methoxy-2-naphthyl)-8-oxooctanoate]: the inhibition in vivo at 50 mg/kg in experiment [1] was 48%.
Regarding `CCOC(=O)CCCCC(=O)c1ccc2cc(OC)ccc2c1` [Example 2, Ethyl 6-(6-methoxy-2-naphthyl)-6-oxohexanoate], the half-maximal inhibitory concentration (IC50) (in general, the midpoint of a concentration-inhibition curve) on 5-lipoxygenase was above 10000 nM. In addition, in experiment [1] (22 mg/kg p.o.), the inhibition in vivo at 22 mg/kg was 50%.
For the compound `COC(=O)CCCCCCC(=O)c1ccc2cc(OC)ccc2c1` [Example 4, Methyl 8-(6-methoxy-2-naphthyl)-8-oxooctanoate], in experiment [1], the inhibition in vivo at 50 mg/kg came to 53%.
With `COc1ccc2cc(C(=O)CCCCCCC(=O)O)ccc2c1` [Example 6, 8-(6-Methoxy-2-naphthyl)-8-oxooctanoic acid], the inhibition in vivo at 50 mg/kg in experiment [1] was 47%.
For the compound `CCOC(=O)CCCCC(=O)c1ccc2cc(O)ccc2c1` [Example 8, Ethyl 6-(6-hydroxy-2-naphthyl)-6-oxohexanoate], the 50% inhibitory concentration (IC50) at 5-lipoxygenase is above 10000 nM. In experiment [1], the inhibition in vivo at 50 mg/kg amounted to 12%.
Turning to `C=CCOc1ccc2cc(C(=O)CCCCC(=O)OCC)ccc2c1` [Example 12, Ethyl 6-(6-allyloxy-2-naphthyl)-6-oxohexanoate], at 5-lipoxygenase, the concentration for half-maximal inhibition (IC50) is above 10000 nM. Moreover, the inhibition in vivo at 50 mg/kg in experiment [1] was found to be 44%.
For `C#CCOc1ccc2cc(C(=O)CCCCC(=O)OCC)ccc2c1` [Example 14, Ethyl 6-(6-propynyloxy-2-naphthyl)-6-oxohexanoate], in experiment [1], the inhibition in vivo at 50 mg/kg came to 23%.
Turning to `COc1ccc2cc(C(=O)CCCCC(=O)N(C)O)ccc2c1` [Example 15, N-Hydroxy-N-methyl-6-(6-methoxy-2-naphthyl)-6-oxohexanamide], the concentration for half-maximal inhibition (IC50) on 5-lipoxygenase amounted to 250 nM. In addition, the inhibition in vivo at 40 mg/kg in experiment [1] (40 mg/kg p.o.) is 34%.
`COc1ccc2cc(C(=O)CCCCC(=O)NO)ccc2c1` [Example 16, N-Hydroxy-6-(6-methoxy-2-naphthyl)-6-oxohexanamide]: the half-inhibitory concentration (IC50) at 5-lipoxygenase was determined as 10000 nM.
Take `CCN(O)C(=O)CCCCC(=O)c1ccc2cc(OC)ccc2c1` [Example 17, N-Ethyl-N-hydroxy-6-(6-methoxy-2-naphthyl)-6-oxohexanamide]: the IC50 on 5-lipoxygenase worked out at 110 nM. In experiment [1], the inhibition in vivo at 50 mg/kg was 23%.
As for `CCCCN(O)C(=O)CCCCC(=O)c1ccc2cc(OC)ccc2c1` [Example 18, N-Butyl-N-hydroxy-6-(6-methoxy-2-naphthyl)-6-oxohexanamide], the IC50 on 5-lipoxygenase was 370 nM.
As to `CCCCCCCN(O)C(=O)CCCCC(=O)c1ccc2cc(OC)ccc2c1` [Example 19, N-Heptyl-N-hydroxy-6-(6-methoxy-2-naphthyl)-6-oxohexanamide], on 5-lipoxygenase, the half-inhibitory concentration (IC50) is 1600 nM.
Regarding `COc1ccc2cc(C(=O)CCCCC(=O)N(O)C(C)(C)C)ccc2c1` [Example 20, N-tert-Butyl-N-hydroxy-6-(6-methoxy-2-naphthyl)-6-oxohexanamide], the IC50 on 5-lipoxygenase is 450 nM.
With `COc1ccc2cc(C(=O)CCCCC(=O)N(O)C3CCCCC3)ccc2c1` [Example 21, N-Hydroxy-N-cyclohexyl-6-(6-methoxy-2-naphthyl)-6-oxohexanamide], the IC50 at 5-lipoxygenase is 400 nM. Moreover, the inhibition in vivo at 50 mg/kg in experiment [1] was 33%.
In the case of `COc1ccc2cc(C(=O)CCCCC(=O)N(O)c3ccccc3)ccc2c1` [Example 22, N-Hydroxy-N-phenyl-6-(6-methoxy-2-naphthyl)-6-oxohexanamide], at 5-lipoxygenase, the IC50 came to 100 nM. For the same compound, the inhibition in vivo at 50 mg/kg in experiment [1] stood at 28%.
For the compound `COc1ccc2cc(C(=O)CCCCC(=O)N(C)OC)ccc2c1` [Example 23, N-Methoxy-N-methyl-6-(6-methoxy-2-naphthyl)-6-oxohexanamide], the IC50 on 5-lipoxygenase is above 10000 nM. Besides, in experiment [1], the inhibition in vivo at 50 mg/kg stood at 60%.
As to `COc1ccc2cc(C(=O)CCCCC(=O)N(O)C(C)C)ccc2c1` [Example 24, N-Hydroxy-N-isopropyl-6-(6-methoxy-2-naphthyl)-6-oxohexanamide], the IC50 on 5-lipoxygenase was determined as 120 nM. Besides, the inhibition in vivo at 50 mg/kg in experiment [1] stood at 51%.
